In BindingDB's records for doi:10.1021/jm00015a003 (Warner-Lambert, 1995) one finds IC50 data, which are given here for 3 molecules.

Usually pIC50 stands for −log10 of the IC50, conventionally taken in molar units.

pIC50: −log10 of the molar value. Counter-ions that a name gives are not always drawn. Numbered stars: 1 amine (or outer) side, 2 acyl side, 3 side chain; on linkers, the order of the positions; unused ones are H or OH. Square brackets hold non-standard residues; d marks the D form. Peptide text beside a SMILES is read from it. * marks the point of attachment. Dip = N[C@H](C(=O)O)C(c1ccccc1)c1ccccc1; CO = O=C([*:1])[*:2]; Tfa = O=C(C(F)(F)F)*; Ms = CS(=O)(=O)*

The nature of this test: Inhibition of ET-1 stimulated arachidonic acid release in rabbit renal vascular smooth muscle cells.
For `CC[C@H](C)[C@H](NC(=O)[C@H](CC(=O)O)NC(=O)[C@H](CC(C)C)NC(=O)[C@@H](NS(C)(=O)=O)C(c1ccccc1)c1ccccc1)C(=O)N[C@H](C(=O)N[C@@H](Cc1c[nH]c2ccccc12)C(=O)O)[C@@H](C)CC` [(S)-N-((1S,2S)-1-{(1S,2S)-1-[(S)-1-Carboxy-2-(1H-indol-3-yl)-ethylcarbamoyl]-2-methyl-butylcarbamoyl}-2-methyl-butyl)-3-[(S)-2-((S)-2-methanesulfonylamino-3,3-diphenyl-propionylamino)-4-methyl-pentanoylamino]-succinamic acid] (Ms-[Dip]LDIIW-OH), the negative logarithm of the IC50 (pIC50) was 5.68.

Consider `CC[C@H](C)[C@H](NC(=O)[C@H](CC(=O)O)NC(=O)[C@H](CC(C)C)NC(=O)[C@@H](NC(=O)C(F)(F)F)C(c1ccccc1)c1ccccc1)C(=O)N[C@H](C(=O)N[C@@H](Cc1c[nH]c2ccccc12)C(=O)O)[C@@H](C)CC` [(S)-N-((1S,2S)-1-{(1S,2S)-1-[(S)-1-Carboxy-2-(1H-indol-3-yl)-ethylcarbamoyl]-2-methyl-butylcarbamoyl}-2-methyl-butyl)-3-{(S)-2-[(S)-3,3-diphenyl-2-(2,2,2-trifluoro-acetylamino)-propionylamino]-4-methyl-pentanoylamino}-succinamic acid] (Tfa-[Dip]LDIIW-OH), for which the pIC50 is 5.77. The pIC50 values of the last two molecules are within 0.2 log units of each other.

Take `CC[C@H](C)[C@H](NC(=O)[C@H](CC(=O)O)NC(=O)[C@H](CC(C)C)NC(=O)[C@@H](NC(=O)NC)C(c1ccccc1)c1ccccc1)C(=O)N[C@H](C(=O)N[C@@H](Cc1c[nH]c2ccccc12)C(=O)O)[C@@H](C)CC` [(S)-N-((1S,2S)-1-{(1S,2S)-1-[(S)-1-Carboxy-2-(1H-indol-3-yl)-ethylcarbamoyl]-2-methyl-butylcarbamoyl}-2-methyl-butyl)-3-{(S)-4-methyl-2-[(S)-2-(3-methyl-ureido)-3,3-diphenyl-propionylamino]-pentanoylamino}-succinamic acid] ({NHMe-CO}-[Dip]LDIIW-OH): the negative logarithm of the IC50 (pIC50) was 6.55. Compared with the last molecule, the pIC50 is 0.78 log units higher.
